# Source: ChEMBL document CHEMBL1201862, “PubChem BioAssay data set” (2004)
# Calls of active or inactive are those of the source.
# Experiments:
# [1] = tested on: Streptococcus sp. 'group A'; assay: Streptococcus pyogenes SK(-)GAS viability under kanamycin – luminescence, BacTiterGlo, confirmation, counter-screen for streptokinase expression inhibitor project, dose response (AID 1900); type: functional, organism-based
# [2] = Trypanosoma cruzi growth suppression in host cells – NIH3T3 host cells, beta-gal luminescence, confirmation (AID 2044); type: functional, cell-based;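 further: intracellular parasites grown in NIH/3T3 mouse fibroblasts as host cells; luminescent beta-galactosidase reporter signal from transgenic T. cruzi replicating inside host cells; inhibitors lower the luminescence signal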
# [3] = NIH3T3 cell viability loss – ATP luminescence, mouse fibroblasts, counter-screen, dose response (AID 2010); type: functional, cell-based;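 further: cells exposed to compound for about 90 hours before reading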
# Streptococcus = assay: GAS UMAA2166 growth inhibition – luminescence, BacTiterGlo, counter-screen for streptokinase expression inhibitor project, dose response (AID 1915); type: functional, organism-based;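 further: potency for reduction of bacterial viability or growth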
# [4] = viability loss in HepG2 hepatoma cells – cell-based, ATP luminescence, cherry-pick, activator set 2, cytotoxicity control, dose response (AID 1053143); type: functional
# [5] = biological target: Luciferin 4-monooxygenase (Photinus pyralis, UniProt P08659); assay: Counter Screen for Luciferase-based Assay Positives. [Related pubchem assays: 620, 618, 411 ]
# HT-1080 = assay: HT1080 cell viability loss – fluorescence readout (AID 620); type: functional, cell-based; conditions: Homo sapiens
# cells = type: functional, cell-based
# [6] = biological target: T1, Nuclear receptor subfamily 0 group B member 1 (Homo sapiens, UniProt P51843); type: functional, cell-based;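 further: HEK293T cells transfected with SF-1 and DAX-1 plus StAR promoter luciferase reporter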
# T1 sequence (P51843 whole entry): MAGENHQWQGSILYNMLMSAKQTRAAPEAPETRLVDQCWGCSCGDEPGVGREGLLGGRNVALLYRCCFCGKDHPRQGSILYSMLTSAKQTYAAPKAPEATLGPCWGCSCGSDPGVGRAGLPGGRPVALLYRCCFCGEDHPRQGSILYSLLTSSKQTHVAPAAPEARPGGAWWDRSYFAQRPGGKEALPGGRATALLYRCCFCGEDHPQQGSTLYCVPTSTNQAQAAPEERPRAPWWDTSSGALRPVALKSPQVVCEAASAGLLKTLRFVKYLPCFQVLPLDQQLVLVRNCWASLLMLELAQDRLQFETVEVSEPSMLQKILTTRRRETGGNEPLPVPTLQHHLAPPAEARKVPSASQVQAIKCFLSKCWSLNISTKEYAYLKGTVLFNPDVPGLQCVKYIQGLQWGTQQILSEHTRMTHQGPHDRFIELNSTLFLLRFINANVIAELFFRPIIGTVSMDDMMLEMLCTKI
# [7] = A549 cell cytotoxicity, dose response, cytotoxicity control, plate reader, cherry-pick, antagonist series (AID 743412); type: functional, cell-based
# [8] = toxicity toward HepG2 liver cells – cell-based, plate reader, cherry-pick, antagonist series, cytotoxicity control, dose response (AID 743416); type: functional
# [9] = blockers of bursicon-stimulated LGR2 cAMP reporter – cell-based, HEK293, CRE-luciferase reporter, cherry pick, set 2, dose response (AID 743343); type: functional;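 further: transfected cells were stimulated with diluted bursicon conditioned medium after compound addition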
# [10] = blockade of melanocortin 4 receptor signaling – cell-based, plate reader, cherry pick, counter-screen for LGR2 antagonist project, dose response (AID 743444); type: functional;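 further: transfected HEK 293 cells stimulated with alpha-MSH peptide; potency of inhibitors of the alpha-MSH evoked signal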
# [11] = Luminescence Cell-Based Dose Response to Identify Activators of 5'UTR Stem-Loop Driven Prion Protein mRNA Translation in H4-C Neuroglioblastoma Cells. [Related pubchem assays: 1829 (Project Summary), 1814 (Primary HTS)]; type: functional
# [12] = Luminescence Cell-Based Dose Response HTS to Identify Activators of Luciferase Translation or Activity in H4 […] Cells. [Related pubchem assays: 1829 (Project Summary), 1814 (Primary HTS)]; type: functional
# [13] = Luminescence Cell-Based Dose Response to Identify Activators of Luciferase Translation or Activity in H4-C Neuroglioblastoma Cells. [Related pubchem assays: 1829 (Project Summary), 1814 (Primary HTS)]; type: functional
# [14] = Luminescence Cell-Based Dose Confirmation to Identify Activators of 5'UTR Stem-Loop Driven Alpha-Synuclein mRNA Translation in H4 Neuroglioblastoma Cells. [Related pubchem assays: 1829 (Project Summary), 1814 (Primary HTS)]; type: functional
# [15] = inhibitors of non-replicating M. tuberculosis, dose response, luciferase, dry powder (AID 651619); type: functional; conditions: Mycobacterium tuberculosis
# [16] = viability loss in HEK293T cells – cell-based, CellTiter-Glo luminescence, dry powder, set 6, cytotoxicity control, dose response (AID 651949); type: functional; conditions: HEK293
# [17] = inhibitors of non-replicating M. tuberculosis, dose response, luciferase, dry powder (AID 651620); type: functional; conditions: Mycobacterium tuberculosis
# [18] = growth inhibition of replicating M. tuberculosis, dose response, counter-screen, dry powder, IC90 (AID 651617); type: functional; conditions: Mycobacterium tuberculosis
# Cytochrome P450 2C9 = Cytochrome P450 2C9 (Homo sapiens, UniProt P11712)
# [19] = biological target: Potassium channel subfamily K member 9 (Homo sapiens, UniProt Q9NPC2); assay: KCNK9 flux blockade, concentration-response – cell-based, FluxOR thallium flux, selectivity assay for TASK1 inhibitor project, SAR follow-up (AID 652211); type: functional;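 further: potency is for inhibitors of the channel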
# [20] = biological target: Potassium channel subfamily K member 3 (Homo sapiens, UniProt O14649); assay: inhibition of human KCNK3 channel flux – CHO cells, FluxOR thallium flux, SAR follow-up (AID 652212); type: functional
# [21] = biological target: Fructose-bisphosphate aldolase (Mycobacterium tuberculosis, UniProt P9WQA3); assay: Fluorescence-based biochemical high throughput dose response assay for inhibitors of the fructose-bisphosphate aldolase (FBA) of M. tuberculosis.; type: functional
# [22] = biological target: COUP transcription factor 2 (Homo sapiens, UniProt P24468); assay: Luminescence-based cell-based high throughput dose response assay to identify inhibitors of COUP-TFII (NR2F2).; type: functional;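 further: HEK293 cells transiently cotransfected with COUP-TFII expression vector and reporter; luciferase reporter luminescence driven by COUP-TFII from the pX2-168 reporter plasmid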
# HeLa = assay: viability loss in HeLa cells – cell-based, ATP luminescence, cherry-pick samples, cytotoxicity control, dose response (AID 687004); type: functional; conditions: Homo sapiens
# [23] = general mammalian cell viability loss – inhibitor set, cherry-pick, set 2, cytotoxicity control for miR-122 modulator project, dose response (AID 720697); type: functional, cell-based
# Paired box protein Pax-8 = Paired box protein Pax-8 (Homo sapiens, UniProt Q06710); assay: PAX8 transcriptional activity inhibition in RMG-I – RMG-I cells, luciferase, cherry-pick, dose response (AID 687027); type: functional, cell-based;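 further: luciferase reporter driven by Pax8 target thyroperoxidase promoter measured by SteadyGlo luminescence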
# [24] = toxicity toward immortalized ovarian surface epithelium – cell-based, plate reader, dry powder samples, cytotoxicity control for PAX8 inhibitor project, dose response (AID 743045); type: functional
# [25] = reduced cellular PGC1a acetyl-lysine signal – cell-based, cherry-picked samples, dose response (AID 720514); type: functional;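 further: potency may reflect raised or lowered acetylation signal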
# [26] = OVCAR-3 cell viability loss – plate reader, dry powder samples, PAX8 inhibitor project, dose response (AID 743044); type: functional, cell-based
# [27] = general cell-killing toxicity readout – plate reader, dry powder samples, cytotoxicity control for PAX8 inhibitor project, dose response (AID 743021); type: functional, cell-based
# [28] = OVCAR8 cell viability loss – plate reader, dry powder samples, PAX8 project, dose response (AID 743197); type: functional, cell-based; conditions: OVCAR-8
# [29] = A2780 cell killing – plate reader, dry powder samples, cytotoxicity control, dose response (AID 743046); type: functional, cell-based
# [30] = CMV-driven luciferase expression suppression in HEK293 – cell-based, luminescence, dry powder, counter-screen for Pax8 inhibitor project, dose response (AID 743020); type: functional
# [31] = Late stage assay provider results from the probe development effort to identify inhibitors of the Plasmodium falciparum M18 Aspartyl Aminopeptidase (M18AAP): radiolabel-based cell-based dose response assay to identify compounds that inhibit P. falciparum growth in RBCs, Set 2..; type: functional
# [32] = viability loss in A549 lung cells – cell-based, 24 h, CellTiter-Glo luminescence, cherry-picks, cytotoxicity control, dose response (AID 1053115); type: functional; conditions: A549, 24 h
# [33] = HepG2 hepatoma cell viability loss – plate reader, dry powder, cytotoxicity control, dose response (AID 651947); type: functional, cell-based
# [34] = biological target: Kappa-type opioid receptor (Homo sapiens, UniProt P41145); assay: kappa opioid receptor antagonism potency – cell-based, fluorescence, dose response, late-stage follow-up (AID 652032); type: functional
# NS3 = NS3 (Hepatitis C virus, UniProt A3EZJ3); assay: NS3h DNA-binding inhibition IC50 – biochemical, fluorescence polarization, ChemBridge library, dose response (AID 743264)
# [35] = viability loss in HepG2 hepatoma cells – cell-based, cherry-picks, set 5, cytotoxicity control, dose response (AID 1053118); type: functional
# [36] = viability loss in HEK293 kidney cells – cell-based, cherry-picks, set 5, cytotoxicity control, dose response (AID 1053117); type: functional
# [37] = cytotoxicity in MITF-independent A375 cells – cell-based, CellTiter-Glo luminescence, dry powder, set 4, counter-screen for MITF inhibitor project, dose response (AID 624364); type: functional; conditions: A-375;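 further: A375 melanoma cells are MITF independent so this is a counter screen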
# [38] = viability loss in MITF-independent A375 cells – cell-based, CellTiter-Glo luminescence, dry powder, set 2, counter-screen for MITF inhibitor project, dose response (AID 624489); type: functional; conditions: A-375;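 further: actives are compounds lowering A375 viability meaning general cytotoxicity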
# Chain of Paired box protein Pax-8 (Q06710 whole entry): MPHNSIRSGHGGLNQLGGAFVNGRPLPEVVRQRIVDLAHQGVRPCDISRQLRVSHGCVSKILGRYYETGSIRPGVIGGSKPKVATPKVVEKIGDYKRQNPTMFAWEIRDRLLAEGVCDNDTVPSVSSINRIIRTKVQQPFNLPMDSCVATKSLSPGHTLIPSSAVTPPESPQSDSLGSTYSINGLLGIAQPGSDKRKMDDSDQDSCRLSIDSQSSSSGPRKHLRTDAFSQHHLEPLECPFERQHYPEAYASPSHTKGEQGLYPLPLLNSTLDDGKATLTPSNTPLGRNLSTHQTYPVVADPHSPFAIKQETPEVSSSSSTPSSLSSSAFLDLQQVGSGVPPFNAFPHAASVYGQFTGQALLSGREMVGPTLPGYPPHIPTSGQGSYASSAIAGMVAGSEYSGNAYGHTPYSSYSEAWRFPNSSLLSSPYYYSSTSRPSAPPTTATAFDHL
# Chain of Potassium channel subfamily K member 3 (O14649 whole entry): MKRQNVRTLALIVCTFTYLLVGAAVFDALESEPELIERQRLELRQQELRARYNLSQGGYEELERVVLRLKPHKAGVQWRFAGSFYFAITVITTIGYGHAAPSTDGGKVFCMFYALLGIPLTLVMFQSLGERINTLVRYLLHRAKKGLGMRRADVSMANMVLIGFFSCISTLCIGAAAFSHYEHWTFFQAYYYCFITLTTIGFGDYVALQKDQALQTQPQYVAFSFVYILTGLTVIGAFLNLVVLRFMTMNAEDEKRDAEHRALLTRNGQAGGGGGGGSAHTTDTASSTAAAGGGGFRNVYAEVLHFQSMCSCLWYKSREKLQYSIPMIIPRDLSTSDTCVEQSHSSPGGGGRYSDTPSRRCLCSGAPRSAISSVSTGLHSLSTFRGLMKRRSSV
# Chain of Cytochrome P450 2C9 (P11712 whole entry): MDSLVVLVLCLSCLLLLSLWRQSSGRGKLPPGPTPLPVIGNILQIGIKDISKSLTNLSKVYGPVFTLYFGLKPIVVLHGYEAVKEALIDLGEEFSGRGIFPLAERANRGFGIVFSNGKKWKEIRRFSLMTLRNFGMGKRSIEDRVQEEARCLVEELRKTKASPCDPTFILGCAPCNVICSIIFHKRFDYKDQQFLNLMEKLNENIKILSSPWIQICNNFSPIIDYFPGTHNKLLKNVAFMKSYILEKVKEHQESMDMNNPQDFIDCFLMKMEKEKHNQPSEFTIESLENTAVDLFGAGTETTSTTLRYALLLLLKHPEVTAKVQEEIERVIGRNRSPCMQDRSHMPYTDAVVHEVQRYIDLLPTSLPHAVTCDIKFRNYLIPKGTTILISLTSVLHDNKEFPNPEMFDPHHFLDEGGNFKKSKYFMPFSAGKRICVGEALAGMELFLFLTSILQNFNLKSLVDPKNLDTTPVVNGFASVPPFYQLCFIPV
# Chain of Luciferin 4-monooxygenase (P08659 whole entry): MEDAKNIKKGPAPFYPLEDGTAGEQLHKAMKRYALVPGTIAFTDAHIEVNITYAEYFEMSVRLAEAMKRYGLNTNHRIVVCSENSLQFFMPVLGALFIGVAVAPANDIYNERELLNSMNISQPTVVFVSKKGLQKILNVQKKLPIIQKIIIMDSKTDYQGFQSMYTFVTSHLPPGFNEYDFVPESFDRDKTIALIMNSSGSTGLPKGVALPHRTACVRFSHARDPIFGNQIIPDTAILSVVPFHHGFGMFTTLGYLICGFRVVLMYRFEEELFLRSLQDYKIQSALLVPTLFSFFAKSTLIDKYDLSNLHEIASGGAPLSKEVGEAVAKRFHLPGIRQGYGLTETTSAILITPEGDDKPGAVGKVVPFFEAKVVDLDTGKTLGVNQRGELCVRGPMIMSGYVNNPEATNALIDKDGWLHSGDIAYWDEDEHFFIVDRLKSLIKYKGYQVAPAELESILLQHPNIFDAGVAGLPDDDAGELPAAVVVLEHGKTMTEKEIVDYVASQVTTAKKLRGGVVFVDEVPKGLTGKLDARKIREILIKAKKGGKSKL
# Chain of Fructose-bisphosphate aldolase (P9WQA3 whole entry): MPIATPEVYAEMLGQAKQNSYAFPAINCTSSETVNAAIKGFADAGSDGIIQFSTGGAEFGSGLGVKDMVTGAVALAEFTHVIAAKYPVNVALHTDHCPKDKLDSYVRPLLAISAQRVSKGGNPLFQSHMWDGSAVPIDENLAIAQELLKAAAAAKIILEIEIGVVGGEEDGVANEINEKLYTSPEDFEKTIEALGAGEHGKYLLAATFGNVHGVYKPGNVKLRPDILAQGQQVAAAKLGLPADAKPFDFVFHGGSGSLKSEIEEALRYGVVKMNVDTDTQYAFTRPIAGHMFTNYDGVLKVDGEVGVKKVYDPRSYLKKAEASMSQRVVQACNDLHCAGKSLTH
# Chain of Kappa-type opioid receptor (P41145 whole entry): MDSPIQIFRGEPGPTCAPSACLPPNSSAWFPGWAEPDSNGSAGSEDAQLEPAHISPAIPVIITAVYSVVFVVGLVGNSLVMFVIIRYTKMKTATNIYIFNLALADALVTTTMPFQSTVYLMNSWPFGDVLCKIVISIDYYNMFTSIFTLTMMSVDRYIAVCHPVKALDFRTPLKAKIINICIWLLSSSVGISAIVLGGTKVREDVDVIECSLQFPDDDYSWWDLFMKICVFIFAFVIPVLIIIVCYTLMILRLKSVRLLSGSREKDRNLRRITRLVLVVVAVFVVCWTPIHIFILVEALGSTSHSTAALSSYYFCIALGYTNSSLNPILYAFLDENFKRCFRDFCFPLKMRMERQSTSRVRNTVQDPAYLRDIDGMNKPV
# Chain of Potassium channel subfamily K member 9 (Q9NPC2 whole entry): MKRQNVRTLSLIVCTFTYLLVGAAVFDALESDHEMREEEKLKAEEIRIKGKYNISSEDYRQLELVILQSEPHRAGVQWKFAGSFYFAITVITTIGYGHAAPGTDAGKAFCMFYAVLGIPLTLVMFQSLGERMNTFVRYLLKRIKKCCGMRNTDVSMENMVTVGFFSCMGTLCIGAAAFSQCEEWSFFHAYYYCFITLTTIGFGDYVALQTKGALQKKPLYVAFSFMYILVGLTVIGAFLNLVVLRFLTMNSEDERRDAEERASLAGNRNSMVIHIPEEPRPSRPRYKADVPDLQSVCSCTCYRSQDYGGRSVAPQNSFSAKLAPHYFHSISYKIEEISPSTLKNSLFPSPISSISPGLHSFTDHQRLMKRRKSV
# Chain of NS3 (A3EZJ3 whole entry): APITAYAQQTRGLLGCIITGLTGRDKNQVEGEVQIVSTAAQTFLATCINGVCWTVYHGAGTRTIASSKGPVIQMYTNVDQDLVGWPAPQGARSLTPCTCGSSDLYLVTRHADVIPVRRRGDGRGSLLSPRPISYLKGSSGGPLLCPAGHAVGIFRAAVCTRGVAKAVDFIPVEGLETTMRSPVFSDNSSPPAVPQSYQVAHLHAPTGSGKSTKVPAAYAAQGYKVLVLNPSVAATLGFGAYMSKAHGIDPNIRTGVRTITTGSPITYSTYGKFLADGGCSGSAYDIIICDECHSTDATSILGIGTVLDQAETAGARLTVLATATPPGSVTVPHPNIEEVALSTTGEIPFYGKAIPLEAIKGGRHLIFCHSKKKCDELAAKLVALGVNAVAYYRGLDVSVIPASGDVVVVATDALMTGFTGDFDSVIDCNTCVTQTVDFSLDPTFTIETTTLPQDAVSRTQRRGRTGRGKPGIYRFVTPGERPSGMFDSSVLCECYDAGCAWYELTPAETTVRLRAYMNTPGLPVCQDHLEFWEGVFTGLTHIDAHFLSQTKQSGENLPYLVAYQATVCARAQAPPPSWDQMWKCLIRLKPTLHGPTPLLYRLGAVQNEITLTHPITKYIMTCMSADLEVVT
# Chain of COUP transcription factor 2 (P24468 whole entry): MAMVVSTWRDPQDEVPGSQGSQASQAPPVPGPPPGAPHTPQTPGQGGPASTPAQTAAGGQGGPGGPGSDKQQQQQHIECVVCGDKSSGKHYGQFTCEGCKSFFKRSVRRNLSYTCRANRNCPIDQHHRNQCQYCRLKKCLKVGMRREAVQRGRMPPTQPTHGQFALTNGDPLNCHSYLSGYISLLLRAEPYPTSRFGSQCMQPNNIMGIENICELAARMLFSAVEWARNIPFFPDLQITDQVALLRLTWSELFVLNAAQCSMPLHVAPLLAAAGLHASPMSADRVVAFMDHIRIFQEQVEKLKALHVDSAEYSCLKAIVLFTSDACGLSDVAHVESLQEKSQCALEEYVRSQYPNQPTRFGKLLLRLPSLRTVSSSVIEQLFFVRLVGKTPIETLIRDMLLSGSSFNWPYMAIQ
compound,measurement,setting,value
CCOc1ccc2c(c1)C(=NNC(=O)c1ccncc1)c1cc(OCC)ccc1-2,EC50,[1],0.894 µM (active)
same,EC50,[2],0.825 µM (active)
same,EC50,[3],> 60 µM (inconclusive)
same,EC50,Streptococcus,3.66 µM (active)
same,AC50,[4],26 µM (active)
COc1ccc(C(=O)Nc2nnc(-c3ccco3)s2)cc1,EC50,[5],> 100 µM (not active)
same,EC50,HT-1080,> 50 µM (not active)
same,IC50,cells,> 67.5 µM (inactive)
same,IC50,[6],> 67.5 µM (inactive)
same,AC50,[7],> 52 µM (inactive)
same,AC50,[8],> 52 µM (inactive)
same,AC50,[9],3.75 µM (active)
same,AC50,[10],3.67 µM (active)
c1ccc(-c2nnc(SCCC3OCCCO3)o2)cc1,EC50,[11],1.55 µM (active)
same,EC50,[12],0.936 µM (active)
same,EC50,[13],0.852 µM (active)
same,EC50,[14],0.604 µM (active)
same,IC90,[15],8 µM (active)
same,AC50,[16],> 52 µM (inactive)
same,IC90,[17],8 µM (active)
same,IC90,[18],62 µM (active)
same,AC50,Cytochrome P450 2C9,inconclusive
O=C(Nc1ccccc1Cl)c1cccc(NC(=O)C2CCCC2)c1,IC50,[19],5.78 µM (active)
same,IC50,[20],0.202 µM (active)
CCCc1cc(=O)oc2cc(OCc3ccc(C(=O)O)o3)ccc12,IC50,[21],2.44 µM (active)
Cc1c(C(=O)C2=C(O)C(=O)N(CCN3CCOCC3)C2c2ccco2)cnn1-c1ccccc1 (stereo unspecified),IC50,[22],21.1 µM (inactive)
COc1ccc(C2=Nc3ccccc3NC(=O)C2N(C(=O)c2cc3ccccc3[nH]2)c2ccccc2)cc1 (stereo unspecified),AC50,HeLa,> 52 µM (inactive)
Cc1ccc(-c2ccc3c(c2)O[C@H](CN(C)C(=O)CC2CC2)[C@H](C)CN([C@@H](C)CO)S3(=O)=O)cc1,AC50,[23],10.4 µM (active)
Fc1cccc(CN2C[C@@H]3N[C@H](C2)[C@@H]3c2ccc(-c3cccc(F)c3)cc2)c1,AC50,Paired box protein Pax-8,23.4 µM (active)
same,AC50,[24],27.6 µM (active)
same,AC50,[25],4.43 µM (active)
same,AC50,[26],22.1 µM (active)
same,AC50,[27],19.5 µM (active)
same,AC50,[28],27 µM (active)
Cc1ccc(S(=O)(=O)Nc2ccc3c(c2)C(=O)N([C@H](C)CO)C[C@@H](C)[C@H](CN(C)S(=O)(=O)c2ccccc2)OCCCC[C@H](C)O3)cc1,AC50,Paired box protein Pax-8,8.05 µM (active)
same,AC50,[29],29.5 µM (active)
same,AC50,[28],> 70 µM (inactive)
COc1ccc(S(=O)(=O)Nc2ccc3c(c2)CC(=O)N([C@H](C)CO)C[C@H](C)[C@@H](CN(C)Cc2ccc(C(F)(F)F)cc2)O3)cc1,AC50,Paired box protein Pax-8,19.3 µM (active)
same,AC50,[30],49.3 µM (active)
same,AC50,[28],> 70 µM (inactive)
Oc1ccc(CCNC(c2ccccc2)c2ccccc2)cc1O,IC50,[31],17 µM (inactive)
C[C@@H]1CCCCO[C@@H](CN(C)S(=O)(=O)c2ccc(Cl)cc2)[C@@H](C)CN([C@@H](C)CO)C(=O)c2cc(NC(=O)Nc3ccc(F)cc3)ccc2O1,AC50,[32],51.4 µM (active)
Fc1ccc(Cn2cc(CSc3nnc(-c4ccc(F)cc4)o3)nn2)cc1,IC90,[15],1 µM (active)
same,AC50,[33],30.8 µM (active)
same,IC90,[17],1 µM (active)
COC(=O)c1cc(Br)cnc1N1CCC(N)CC1,IC50,[34],21.8 µM (inactive)
Cc1c(C(=O)O)cccc1-n1c(C)ccc1C,IC50,NS3,34.5 µM (inactive)
CO[C@@H]1CN(C)C(=O)c2cc(NC(=O)Nc3cc(Cl)cc(Cl)c3)ccc2OC[C@@H](C)NC[C@@H]1C,AC50,[35],23.8 µM (active)
same,AC50,[36],36.7 µM (active)
COc1ccc(C(=O)NC2=C(c3ccc(OC)cc3)C(=O)c3ccccc3C2=O)cc1,AC50,[37],20.1 µM (active)
same,AC50,[38],13.3 µM (active)
